From BindingDB's records for doi:10.1128/AAC.01311-05 (Microbiotix, 2007)
pIC50, pKi: −log10 of the molar value.

Columns and labels:
[1] = target: T1, DNA polymerase alpha subunit B (Bos taurus, UniProt Q58D13); test: DNA Polymerase Activity Assay; settings: pH 7.5; 37 °C
T1 sequence (Q58D13 whole entry): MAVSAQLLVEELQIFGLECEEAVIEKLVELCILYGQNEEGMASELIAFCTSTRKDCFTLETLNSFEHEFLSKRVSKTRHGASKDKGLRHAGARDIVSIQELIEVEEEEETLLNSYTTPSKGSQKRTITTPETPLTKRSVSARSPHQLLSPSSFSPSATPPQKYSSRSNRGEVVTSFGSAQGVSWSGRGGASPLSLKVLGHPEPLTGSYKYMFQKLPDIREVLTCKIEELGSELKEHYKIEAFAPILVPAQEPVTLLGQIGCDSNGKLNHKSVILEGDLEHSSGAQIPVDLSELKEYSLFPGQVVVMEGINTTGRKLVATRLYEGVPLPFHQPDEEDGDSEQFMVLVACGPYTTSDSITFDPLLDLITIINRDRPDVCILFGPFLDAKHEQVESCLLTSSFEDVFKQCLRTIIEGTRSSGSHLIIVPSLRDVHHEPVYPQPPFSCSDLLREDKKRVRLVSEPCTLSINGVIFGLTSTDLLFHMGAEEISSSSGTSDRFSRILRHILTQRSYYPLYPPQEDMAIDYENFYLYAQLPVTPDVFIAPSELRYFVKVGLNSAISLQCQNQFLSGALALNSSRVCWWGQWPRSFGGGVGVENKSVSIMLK
Experimental: (§1) Reaction velocities were determined at each dGTP concentration and used to create double reciprocal plots of velocity versus dGTP concentration. The plots were used to assess the mechanism of inhibition and calculate the apparent Ki value for the inhibitor.

[2] = target: DNA polymerase III subunit alpha (Escherichia coli (strain K12), UniProt P10443); test: DNA Polymerase Activity Assay; settings: pH 7.5; 30 °C
DNA polymerase III subunit alpha (Escherichia coli (strain K12), UniProt P10443), sequence (P10443 whole entry): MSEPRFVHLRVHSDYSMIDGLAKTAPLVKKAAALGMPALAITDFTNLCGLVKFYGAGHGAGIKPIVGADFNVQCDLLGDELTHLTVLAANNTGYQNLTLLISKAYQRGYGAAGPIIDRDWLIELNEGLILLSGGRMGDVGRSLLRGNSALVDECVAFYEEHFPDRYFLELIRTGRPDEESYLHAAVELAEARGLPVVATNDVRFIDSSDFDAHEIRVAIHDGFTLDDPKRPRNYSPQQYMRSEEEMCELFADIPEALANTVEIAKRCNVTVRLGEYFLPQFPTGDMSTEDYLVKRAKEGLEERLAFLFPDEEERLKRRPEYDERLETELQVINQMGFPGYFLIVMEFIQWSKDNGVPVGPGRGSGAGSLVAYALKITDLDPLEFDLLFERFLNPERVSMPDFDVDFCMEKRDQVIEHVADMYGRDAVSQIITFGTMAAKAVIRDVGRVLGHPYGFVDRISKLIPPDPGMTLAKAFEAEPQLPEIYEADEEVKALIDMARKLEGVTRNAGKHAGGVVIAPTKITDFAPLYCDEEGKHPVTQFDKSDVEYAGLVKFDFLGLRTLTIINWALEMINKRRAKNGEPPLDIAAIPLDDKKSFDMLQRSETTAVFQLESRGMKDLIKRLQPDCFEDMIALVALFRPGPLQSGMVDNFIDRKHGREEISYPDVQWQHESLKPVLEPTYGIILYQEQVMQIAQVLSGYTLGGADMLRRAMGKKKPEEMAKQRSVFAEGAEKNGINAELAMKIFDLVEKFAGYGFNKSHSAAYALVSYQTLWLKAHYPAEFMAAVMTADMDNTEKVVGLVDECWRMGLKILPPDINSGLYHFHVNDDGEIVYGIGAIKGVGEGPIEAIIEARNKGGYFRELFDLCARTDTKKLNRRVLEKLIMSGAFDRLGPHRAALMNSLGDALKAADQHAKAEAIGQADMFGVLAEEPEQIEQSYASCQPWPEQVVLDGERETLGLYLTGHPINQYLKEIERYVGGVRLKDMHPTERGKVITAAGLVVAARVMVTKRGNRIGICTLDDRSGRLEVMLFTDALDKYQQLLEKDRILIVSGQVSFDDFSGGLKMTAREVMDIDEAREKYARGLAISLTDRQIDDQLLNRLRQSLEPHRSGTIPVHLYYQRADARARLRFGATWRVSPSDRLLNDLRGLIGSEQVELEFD
Experimental: as §1

[3] = target: DNA polymerase III subunit alpha (Bacillus subtilis (strain 168), UniProt O34623); test: DNA Polymerase Activity Assay; settings: pH 7.5; 30 °C
Experimental: as §1

[4] = target: DNA topoisomerase 4 subunit A [V210L]/B (Bacillus subtilis, UniProt Q45066+Q59192, V210L); test: DNA Topoisomerase IV Assay; settings: pH 7.5; 30 °C
DNA topoisomerase 4 subunit A [V210L]/B, sequence (Q45066 whole entry V210L): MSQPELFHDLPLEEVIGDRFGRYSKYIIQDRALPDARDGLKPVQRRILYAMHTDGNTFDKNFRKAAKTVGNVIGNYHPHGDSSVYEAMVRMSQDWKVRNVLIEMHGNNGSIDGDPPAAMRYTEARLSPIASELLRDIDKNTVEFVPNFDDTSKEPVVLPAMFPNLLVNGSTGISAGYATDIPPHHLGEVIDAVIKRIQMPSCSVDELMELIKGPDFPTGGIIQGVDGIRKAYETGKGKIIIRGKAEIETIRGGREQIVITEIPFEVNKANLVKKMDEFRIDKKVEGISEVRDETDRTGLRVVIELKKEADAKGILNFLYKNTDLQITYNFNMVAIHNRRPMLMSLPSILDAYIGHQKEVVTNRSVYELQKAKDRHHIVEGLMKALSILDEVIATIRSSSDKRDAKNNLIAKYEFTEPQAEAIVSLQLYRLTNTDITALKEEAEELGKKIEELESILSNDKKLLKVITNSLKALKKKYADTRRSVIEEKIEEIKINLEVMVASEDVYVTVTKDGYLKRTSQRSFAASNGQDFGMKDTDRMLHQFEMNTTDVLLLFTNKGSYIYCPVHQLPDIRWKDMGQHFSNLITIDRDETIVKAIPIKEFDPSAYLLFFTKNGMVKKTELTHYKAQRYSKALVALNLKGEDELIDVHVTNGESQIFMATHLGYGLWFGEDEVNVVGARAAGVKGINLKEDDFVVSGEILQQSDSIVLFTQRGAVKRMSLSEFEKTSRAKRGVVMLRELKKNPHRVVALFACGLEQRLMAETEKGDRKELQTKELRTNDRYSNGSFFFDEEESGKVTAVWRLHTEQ
DNA topoisomerase 4 subunit A [V210L]/B, sequence (Q59192 whole entry): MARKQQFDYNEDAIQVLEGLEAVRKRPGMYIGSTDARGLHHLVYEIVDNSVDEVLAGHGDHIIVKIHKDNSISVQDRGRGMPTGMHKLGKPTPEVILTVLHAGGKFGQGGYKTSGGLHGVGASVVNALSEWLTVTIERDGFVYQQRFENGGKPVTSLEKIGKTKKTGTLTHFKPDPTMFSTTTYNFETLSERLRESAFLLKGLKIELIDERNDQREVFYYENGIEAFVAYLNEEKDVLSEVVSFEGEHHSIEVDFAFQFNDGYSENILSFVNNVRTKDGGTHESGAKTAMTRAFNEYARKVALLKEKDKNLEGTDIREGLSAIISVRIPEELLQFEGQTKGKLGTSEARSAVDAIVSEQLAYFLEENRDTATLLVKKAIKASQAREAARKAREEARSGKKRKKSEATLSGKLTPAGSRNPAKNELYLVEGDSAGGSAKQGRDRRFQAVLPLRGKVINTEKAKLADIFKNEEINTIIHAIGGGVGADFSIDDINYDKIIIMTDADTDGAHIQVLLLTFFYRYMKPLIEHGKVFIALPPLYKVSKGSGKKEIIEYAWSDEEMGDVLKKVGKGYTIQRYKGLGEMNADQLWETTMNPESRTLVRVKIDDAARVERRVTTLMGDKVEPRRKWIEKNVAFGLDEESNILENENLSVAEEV

DNA gyrase subunit A/B = DNA gyrase subunit A/B (Bacillus subtilis (strain 168), UniProt P05652+P05653); test: DNA Gyrase Activity Assay; settings: pH 7.5; 30 °C
DNA gyrase subunit A/B, sequence (P05653 whole entry): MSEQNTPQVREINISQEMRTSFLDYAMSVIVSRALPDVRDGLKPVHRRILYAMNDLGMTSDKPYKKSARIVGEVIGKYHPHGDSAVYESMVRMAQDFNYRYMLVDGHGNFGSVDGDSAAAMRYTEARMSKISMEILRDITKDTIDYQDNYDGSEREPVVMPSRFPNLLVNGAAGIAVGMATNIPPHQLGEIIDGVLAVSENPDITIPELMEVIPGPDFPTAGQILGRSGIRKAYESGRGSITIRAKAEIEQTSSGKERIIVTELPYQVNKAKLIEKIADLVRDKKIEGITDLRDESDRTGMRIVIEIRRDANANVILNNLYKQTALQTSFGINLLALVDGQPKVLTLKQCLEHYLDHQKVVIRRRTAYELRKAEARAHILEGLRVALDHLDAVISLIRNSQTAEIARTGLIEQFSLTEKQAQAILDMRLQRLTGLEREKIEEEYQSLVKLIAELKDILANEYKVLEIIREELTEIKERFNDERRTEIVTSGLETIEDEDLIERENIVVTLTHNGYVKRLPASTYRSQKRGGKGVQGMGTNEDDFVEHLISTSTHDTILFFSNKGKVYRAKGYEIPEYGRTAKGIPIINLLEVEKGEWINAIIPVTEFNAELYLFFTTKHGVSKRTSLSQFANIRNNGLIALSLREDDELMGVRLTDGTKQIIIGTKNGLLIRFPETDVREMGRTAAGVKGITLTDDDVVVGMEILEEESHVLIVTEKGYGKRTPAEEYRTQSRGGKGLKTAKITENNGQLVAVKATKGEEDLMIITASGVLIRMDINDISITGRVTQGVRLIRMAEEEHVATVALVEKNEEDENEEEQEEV
DNA gyrase subunit A/B, sequence (P05652 whole entry): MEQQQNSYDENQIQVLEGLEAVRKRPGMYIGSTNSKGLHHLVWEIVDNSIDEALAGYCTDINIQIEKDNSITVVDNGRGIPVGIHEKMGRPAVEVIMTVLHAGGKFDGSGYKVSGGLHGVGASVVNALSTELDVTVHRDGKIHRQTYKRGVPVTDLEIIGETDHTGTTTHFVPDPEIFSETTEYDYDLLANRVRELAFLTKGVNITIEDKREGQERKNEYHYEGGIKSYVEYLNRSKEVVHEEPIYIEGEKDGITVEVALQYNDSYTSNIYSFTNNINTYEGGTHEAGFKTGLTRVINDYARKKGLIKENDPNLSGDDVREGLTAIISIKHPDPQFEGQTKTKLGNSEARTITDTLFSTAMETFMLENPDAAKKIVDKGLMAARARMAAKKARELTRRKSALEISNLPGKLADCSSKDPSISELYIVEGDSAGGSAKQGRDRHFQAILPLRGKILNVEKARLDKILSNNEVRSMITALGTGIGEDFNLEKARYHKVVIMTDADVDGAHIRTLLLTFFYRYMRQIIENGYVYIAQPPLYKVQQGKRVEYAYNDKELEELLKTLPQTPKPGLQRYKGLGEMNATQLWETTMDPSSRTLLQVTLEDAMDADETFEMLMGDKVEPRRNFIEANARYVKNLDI

## CCc1cc(Nc2cc(=O)n(CCCCN3CCN(c4c(F)cc5c(=O)c(C(=O)O)cn(C6CC6)c5c4F)CC3C)c(=O)[nH]2)ccc1C (stereo unspecified)
[1]
  pKi: < 3.32
[2]
  pKi: < 3.32
[3]
  pKi: < 3.32

## CCc1cc(Nc2cc(=O)n(CCCCO)c(=O)[nH]2)ccc1C [HBEMAU]
[1]
  pKi: < 3.00
[4]
  pIC50: < 3.30
DNA gyrase subunit A/B
  pIC50: < 3.30
